Laboratory results taken from publication PMC2914685 (Analytical biochemistry, 2010).
No end group written: not given here.

What was measured:
Abl SH3 domain [1] = target: T1, Abl SH3 domain (Homo sapiens, UniProt P00519); conditions: computationally predicted from the human proteome; ref [30]; [31] (Personal communication); cited from earlier work
Abl SH3 domain [2] = target: T1, Abl SH3 domain; experiment: Tetracycline repressor-based mammalian two-hybrid assay; assay type: cell-based; conditions: HEK 293 cells, 48 hours post-transfection, fluorescence microscopy, Figure 2
Abl SH3 domain (SH3-His) = experiment: Abl SH3 domain Western blot-type detection; assay type: binding, human; conditions: fluorescence under UV 365 nm, estimated, data not shown
SH3-His = SH3-His (human, UniProt P00519 61-121); experiment: fluorescence polarisation
SH3-His, sequence (P00519 61-121): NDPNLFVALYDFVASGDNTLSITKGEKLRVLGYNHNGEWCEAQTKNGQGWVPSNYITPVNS

T1 sequence (P00519 61-121 limits assumed): as the sequence (P00519 61-121) above

Row | Molecule | predicted binding to Abl SH3 domain (Abl SH3 domain [1]) | interaction with Abl SH3 domain in vivo (AcGFP expression) (Abl SH3 domain [2]) | other results
1 | AAAMQKPSLP [BOT1] | non-binding peptide | – | –
2 | APAFPPPSPP [TOP1] | binding peptide | positive interaction | –
3 | MGAGAPAFPPPSPP@EF-(GFP)-His6 [TOP1-DOPA-GFP] | – | – | lowest limit of detection of SH3-His (Abl SH3 domain (SH3-His)): about 0.5 μg
4 | TetR-BOT1: TetR with dimerization domain replaced with BOT1 (AAAMQKPSLP; also: insert only, fused into TetR protein) | – | does not bind to TetR-SH3 | –
5 | APAFPPPSPP (also: FITC label, position not given here) [TOP1-FITC] | – | – | Kd (SH3-His): 16 ± 1 µM
